“Also recorded” adds a separate entry of the source.
How the values were obtained:
[1] = test system: enteric nerve cells; test: Peristalsis model using luminally perfused mouse colon (Example 35); settings: colon muscle perfused at 1, 0.5 and 0.1 mg/mL for 15 minutes; for stimulation of enteric nerve cells: without involving gut microbiota and/or their metabolites
Method: In this Example, the effect of 2′-fucosyllactose (2′FL) or 3′ fucosyllactose (3′FL) on stimulating enteric nerve cells in the gastrointestinal tract of rodents is analyzed.
Specifically, a peristalsis model using luminally perfused mouse colon is used to test the stimulation effect of 2′FL or 3′FL on enteric nerve cells. Colon muscle is perfused with 2′FL or 3′FL, at concentrations of 1 mg/mL, 0.5 mg/mL, and 0.1 mg/mL, for 15 minutes. The frequency and amplitude of contractions of the muscle is analyzed.

[2] = test system: infant fecal inoculum (diluted feces); test: In vitro fermentation model simulating large bowel fermentation with infant fecal inoculum (Example 36); assay type: cell-based, human infant; settings: for pH change from baseline: at 3, 6, and 12 h after inoculation, comparison among substrates (P<0.0001)
[3] = test system: Bifidobacterium spp. (12 bifidobacteria strains); test: Bacterial growth assay (OD600), all bifidobacteria strains tested (Example 37); assay type: cell-based; settings: for growth / ability to ferment the carbohydrate (OD600): carbohydrate at 1% final concentration in sMRS+cysteine, all bifidobacteria tested
Method: (§1) All bifidobacteria strains are initially inoculated from frozen stocks, grown in deMan Rogosa Sharpe (MRS) broth (Difco, Detroit, Mich.) supplemented with 0.5 g/L L-cysteine and incubated at 37° C. for 24 h in an anaerobic chamber (90% N2, 5% CO2 and 5% H2). Subsequently, the cultures are passed twice on a semi-synthetic MRS medium (sMRS)+0.5 g/L L-cysteine which is supplemented with 1% (w/v) filter-sterilized glucose as the sole carbohydrate source. After the 2nd pass, cultures are prepared to use as inoculums for growth assays described below. For bifidobacteria strains, the same procedure is followed except all media are supplemented with 0.5 g/l L-cysteine/HCl.
(§2) After the 2nd pass in sMRS+glucose+cysteine, the cultures are washed once with 10 mL of sterile sMRS+cysteine (no carbohydrate), resuspended in 10 ml of sterile sMRS+cysteine (no carbohydrate) and then used as a 1% inoculum. The carbohydrates are sterilized with a 0.22 micron filter and used at a 1% final concentration. Cell growth is performed in 250 μL of sMRS+cysteine covered with 50 μL of mineral oil in a Bioscreen 100-well Honeycomb plate. Cell growth is monitored by measuring optical density at 600 nm (OD600) using a Bioscreen C Automated Microbiology Growth Curve Analysis System. The plate reader is operated in discontinuous mode, with absorbance readings performed in 30-minute intervals, and preceded by 30-second shaking intervals at maximum speed. Controls consist of inoculated medium lacking carbohydrate. Due to space limitations on the microtitre plate, the carbohydrates are divided into three separate groups: plate A (HMO precursors: glucose, galactose, lactose, NAG, fucose, fructose and sialic acid), plate B (Prebiotics: glucose, Purimune™ GOS, purified Purimune™ GOS, Vivinal® GOS, purified Vivinal® GOS, scFOS and PDX), and plate C (HMOs: glucose, 6′-SL, 3′-SL, 2′-FL, 3′-FL and LNnT). All three plates include a positive control (glucose) and negative control (no carbohydrate).
(§3) The OD600 data for each carbohydrate is corrected by subtracting the OD600 of the basal media (sMRS) from the sample plate for each probiotic. Maximum OD is determined by inspection of the corrected growth data. OD is determined by subtracting the initial corrected OD (time point 0) from the maximum corrected OD. Samples are grown in biologically independent triplicates and the resulting growth kinetic data are expressed as the mean of these replicates.
(§4) For the growth curve plots, OD600 vs. time is first plotted for the bacteria grown on medium lacking carbohydrate (sMRS). For all other carbohydrates, the OD600 data is corrected by subtracting the OD600 of sMRS.

[4] = test system: B. infantis ATCC 15697; test: Bacterial growth assay (OD600), B. infantis ATCC 15697; assay type: cell-based, Bifidobacterium infantis; settings: 1% carbohydrate in sMRS+cysteine
Method: as §1, §2, §3, §4

[5] = test system: B. infantis M-63; test: Bacterial growth assay (OD600), B. infantis M-63; assay type: cell-based, Bifidobacterium infantis; settings: 1% carbohydrate in sMRS+cysteine
Method: as §1, §2, §3, §4

[6] = test system: B. breve ATCC 15700; test: Bacterial growth assay (OD600), B. breve ATCC 15700; assay type: cell-based, Bifidobacterium breve; settings: 1% carbohydrate in sMRS+cysteine
Method: as §1
After the 2nd pass in sMRS+glucose+cysteine, the cultures are washed once with 10 mL of sterile sMRS+cysteine (no carbohydrate), resuspended in 10 ml of sterile sMRS+cysteine (no carbohydrate) and then used as a 1% inoculum. The carbohydrates are sterilized with a 0.22 micron filter and used at a 1% final concentration. […] Cell growth is monitored by measuring optical density at 600 nm (OD600) using a Bioscreen C Automated Microbiology Growth Curve Analysis System. The plate reader is operated in discontinuous mode, with absorbance readings performed in 30-minute intervals, and preceded by 30-second shaking intervals at maximum speed. […]

2′-fucosyllactose [2′FL]
amplitude of contraction [1]: reduced consistently and in a dose response fashion | frequency of contraction [1]: reduced consistently and in a dose response fashion | stimulation of enteric nerve cells [1]: direct stimulation of nerve cells | stimulation of enteric nerve cells ([1]; listed as 2′-fucosyllactose): stimulates enteric nerve cells | fermentation rate [2]: about 4,872 μg/g of dry matter/hour | pH change from baseline [2]: greatest | growth / ability to ferment the carbohydrate (OD600) [3]: only B. infantis ATCC 15697 and B. infantis M-63 are able to ferment | growth / ability to ferment the carbohydrate (OD600) [4]: able to ferment | growth / ability to ferment the carbohydrate (OD600) [5]: able to ferment

3′-fucosyllactose [3′FL]
amplitude of contraction [1]: reduced consistently and in a dose response fashion | effectiveness on gut motility, 3′FL compared with 2′FL [1]: more effective than 2′FL | frequency of contraction [1]: reduced consistently and in a dose response fashion | stimulation of enteric nerve cells [1]: direct stimulation of nerve cells | fermentation rate class (rapidly-, medium-, slowly-fermented oligosaccharide) [2]: Medium-fermented | growth / ability to ferment the carbohydrate (OD600) [3]: only B. infantis ATCC 15697 and B. infantis M-63 are able to ferment | growth / ability to ferment the carbohydrate (OD600) [4]: able to ferment | growth / ability to ferment the carbohydrate (OD600) [5]: able to ferment

CC(=O)N[C@H]1[C@H](O[C@H]2[C@@H](O)[C@@H](CO)O[C@@H](O[C@H]3[C@H](O)[C@@H](O)C(O)O[C@@H]3CO)[C@@H]2O)O[C@H](CO)[C@@H](O[C@@H]2O[C@H](CO)[C@H](O)[C@H](O)[C@H]2O)[C@@H]1O (mixture of isomers) [LNnT, Lacto-N-Neotetraose]
fermentation rate [2]: about 4,488 μg/g of dry matter/hour | pH change from baseline [2]: greatest | growth / ability to ferment the carbohydrate (OD600) [4]: grow well; also recorded: able to ferment | growth / ability to ferment the carbohydrate (OD600) [6]: grow well; also recorded: able to ferment | growth / ability to ferment the carbohydrate (OD600) [5]: grow well; also recorded: able to ferment

CC(=O)N[C@H]1[C@H]([C@H](O)[C@H](O)CO)O[C@@](O[C@H]2[C@@H](O)[C@@H](CO)O[C@@H](O[C@H]3[C@H](O)[C@@H](O)C(O)O[C@@H]3CO)[C@@H]2O)(C(=O)O)C[C@@H]1O (stereo partly shown) [3′SL, 3′-sialyllactose]
fermentation rate class (rapidly-, medium-, slowly-fermented oligosaccharide) [2]: Medium-fermented | growth / ability to ferment the carbohydrate (OD600) [3]: only B. infantis ATCC 15697 and B. infantis M-63 are able to ferment | growth / ability to ferment the carbohydrate (OD600) [4]: able to ferment | growth / ability to ferment the carbohydrate (OD600) [5]: able to ferment

CC(=O)N[C@H]1[C@H]([C@H](O)[C@H](O)CO)O[C@@](OC[C@H]2O[C@@H](O[C@H]3[C@H](O)[C@@H](O)[C@H](O)O[C@@H]3CO)[C@H](O)[C@@H](O)[C@H]2O)(C(=O)O)C[C@@H]1O [6′SL, 6′-sialyllactose]
fermentation rate [2]: about 1,809 μg/g of dry matter/hour | fermentation rate class (rapidly-, medium-, slowly-fermented oligosaccharide) [2]: Medium-fermented | total SCFA production ([2]; 12 h of fermentation): greater (P<0.05) for the 6′SL and GOS substrates compared to 2′FL | total SCFA production ([2]; after 3 and 6 h of fermentation): lower (P<0.05) with 6′SL compared to GOS | growth / ability to ferment the carbohydrate (OD600) [3]: only B. infantis ATCC 15697 and B. infantis M-63 are able to ferment | growth / ability to ferment the carbohydrate (OD600) [4]: able to ferment | growth / ability to ferment the carbohydrate (OD600) [5]: able to ferment

C[C@H](O)[C@@H](O)[C@@H](O)[C@H](O)C=O [L-fucose, L-(−) Fucose]
growth / ability to ferment the carbohydrate (OD600) [3]: None of the bifidobacteria are able to ferment | growth / ability to ferment the carbohydrate (OD600) [4]: not able to ferment | growth / ability to ferment the carbohydrate (OD600) [5]: not able to ferment

CC(=O)N[C@H]1C(O)O[C@H](CO)[C@@H](O)[C@@H]1O (stereo partly drawn) [NAG, N-acetyl-D-glucosamine]
growth / ability to ferment the carbohydrate (OD600) [3]: Only B. breve ATCC 15700 is able to ferment | growth / ability to ferment the carbohydrate (OD600) [6]: able to ferment

O=C(CO)[C@@H](O)[C@H](O)[C@H](O)CO [fructose, D-Fructose]
growth / ability to ferment the carbohydrate (OD600) [3]: majority of bifidobacteria is able to ferment

OC[C@H]1O[C@@H](O[C@H]2[C@H](O)[C@@H](O)[C@@H](O)O[C@@H]2CO)[C@H](O)[C@@H](O)[C@H]1O [lactose, α-Lactose]
growth on the carbohydrate (OD600) ([3]; 1% carbohydrate, bifidobacteria which are not able to ferment galactose): reduced growth

CC(=O)N[C@H]1[C@H]([C@H](O)[C@H](O)CO)OC(O)(C(=O)O)C[C@@H]1O (stereo partly shown) [sialic acid, N-acetylneuraminic acid]
growth / ability to ferment the carbohydrate (OD600) [3]: None of the bifidobacteria are able to ferment | growth / ability to ferment the carbohydrate (OD600) [4]: not able to ferment | growth / ability to ferment the carbohydrate (OD600) [5]: not able to ferment

Reference: patent US20120171166A1, “SYNBIOTIC COMBINATION OF PROBIOTIC AND HUMAN MILK OLIGOSACCHARIDES TO PROMOTE GROWTH OF BENEFICIAL MICROBIOTA” (ABBOTT LABORATORIES, priority 2010, published 2012)
